Test system: THP1 cells
Assay type: cell-based, human
Details: CA-4948 vs DMSO in THP1 cells

For `Cc1cc(-c2nc(C(=O)Nc3cc4oc(N5CCOCC5)nc4nc3N3CC[C@@H](O)C3)co2)ccn1` [CA-4948, emavusertib], the “Log(FC) of gene FAM57B” value was 0.9462, the “Log(FC) of gene FAM229A” value was 0.8452 and the “Log(FC) of gene FBXO15” value was −0.5977. For the same molecule, the “Log(FC) of gene FCRLB” value was 1.162, the “Log(FC) of gene FFAR4” value was 0.5911 and the “Log(FC) of gene FLJ31945” value was −0.9544. The “Log(FC) of gene FLJ45513” value was 1.668, the “Log(FC) of gene GALR2” value was 0.6354 and the “Log(FC) of gene GAS6-AS1” value was 0.6025. The “Log(FC) of gene GDPD3” value was 0.695, the “Log(FC) of gene GIPR” value was 0.6177 and the “Log(FC) of gene GJC2” value was 0.7031. The “Log(FC) of gene GNMT” value was 1.408, the “Log(FC) of gene GP9” value was 0.8031 and the “Log(FC) of gene GPR3” value was −0.5921. For the same molecule, the “Log(FC) of gene GPR113” value was 0.7578, the “Log(FC) of gene GPR135” value was 0.8057 and the “Log(FC) of gene GPR158” value was −0.6058. The “Log(FC) of gene GSDMB” value was 0.7698, the “Log(FC) of gene GSTM2” value was 0.7484 and the “Log(FC) of gene GUCA1B” value was 1.348. For the same molecule, the “Log(FC) of gene HHLA3” value was 0.7796, the “Log(FC) of gene HLA-F-AS1” value was 0.5961 and the “Log(FC) of gene HPD” value was 0.6253. The “Log(FC) of gene HSPA7” value was 0.9538, the “Log(FC) of gene ID3” value was 0.6893 and the “Log(FC) of gene IGFBP3” value was −0.9606. The “Log(FC) of gene IGFBP7-AS1” value was 0.9516, the “Log(FC) of gene IL8” value was −0.7139 and the “Log(FC) of gene IL9R” value was 1.002. The “Log(FC) of gene IL10RB-AS1” value was 0.6103, the “Log(FC) of gene IPO9-AS1” value was 0.7271 and the “Log(FC) of gene ITIH4” value was 1.233. For the same molecule, the “Log(FC) of gene KCND1” value was 0.5935, the “Log(FC) of gene KCNIP3” value was −0.6151 and the “Log(FC) of gene KIAA1324” value was 0.7793. The “Log(FC) of gene KRBA2” value was −0.8123, the “Log(FC) of gene LAMC3” value was 0.6855 and the “Log(FC) of gene LDLRAD4” value was 0.7569. For the same molecule, the “Log(FC) of gene LHPP” value was 1.078, the “Log(FC) of gene LINC00337” value was 0.6329 and the “Log(FC) of gene LINC00641” value was 0.8241. The “Log(FC) of gene LINC00893” value was 0.737, the “Log(FC) of gene LINC00959” value was 0.7922 and the “Log(FC) of gene LOC155060” value was 0.6346. The “Log(FC) of gene LOC284889” value was 0.8366, the “Log(FC) of gene LOC644961” value was 0.6222 and the “Log(FC) of gene LOC728715” value was 0.6401. For the same molecule, the “Log(FC) of gene LOC728752” value was 0.7225, the “Log(FC) of gene LOC100128494” value was 0.9913 and the “Log(FC) of gene LOC100129924” value was 1.019. The “Log(FC) of gene LOC100130698” value was −1.064, the “Log(FC) of gene LOC100130705” value was 0.845 and the “Log(FC) of gene LOC100133091” value was 0.5851. For the same molecule, the “Log(FC) of gene LOC100134868” value was 0.8444, the “Log(FC) of gene LOC100288069” value was 0.6928 and the “Log(FC) of gene LOC100288102” value was −0.6006. The “Log(FC) of gene LOC100505771” value was 0.7704, the “Log(FC) of gene LOC100506083” value was 0.8144 and the “Log(FC) of gene LOC100506100” value was 0.8985. The “Log(FC) of gene LOC100506472” value was 0.7649, the “Log(FC) of gene LOC100506518” value was 0.7779 and the “Log(FC) of gene LOC100506548” value was 1.108. The “Log(FC) of gene LOC100507373” value was 0.7784, the “Log(FC) of gene LOC100507424” value was 1.26 and the “Log(FC) of gene LOC100507462” value was 0.6976. For the same molecule, the “Log(FC) of gene LOC101927085” value was −0.6948, the “Log(FC) of gene LOC101927119” value was 0.6408 and the “Log(FC) of gene LOC101927895” value was 0.6379. The “Log(FC) of gene LOC101927910” value was 1.281, the “Log(FC) of gene LOC101927974” value was 0.7679 and the “Log(FC) of gene LOC101928038” value was 0.8781. For the same molecule, the “Log(FC) of gene LOC101928055” value was 0.8595, the “Log(FC) of gene LOC101928710” value was 0.5901 and the “Log(FC) of gene LOC101928830” value was 0.7631. The “Log(FC) of gene LOC101929046” value was 0.6794, the “Log(FC) of gene LOC101929054” value was 0.589 and the “Log(FC) of gene LOC101929112” value was 0.5992.

Source: patent US20260034112A1, “MULTI-CYCLIC IRAK1 AND IRAK4 INHIBITING COMPOUNDS AND USES THEREOF” (CHILDREN'S HOSPITAL MEDICAL CENTER, priority 2022, published 2026)
